# Experimental data: patent publication US8598221B2 (priority 2009, dated 2013)
# System: cramps induced by acetic acid in the mouse
# Assay: animal or person
# Type: in vivo
# Protocol: The analgesic effect of a nefopam-celecoxib combination was investigated in the model of abdominal cramps induced in the mouse by intraperitoneal administration of acetic acid. This model of pain induced by a chemical substance corresponds to inflammatory, visceral and acute pain.
# Male CD1 mice (bred: C. River) weighing between 25 and 30 grams are used after an acclimatization for at least 7 days in the animal house (temp.=22±2; humidity=50±20%; food SAFE “A04”; nyctohemeral cycle: 12 h/12 h (light: 7 h/19 h−darkness: 19 h/7 h)). • 2. Protocol
# On the day of the experiment, the non-fasting mice are weighed, marked and distributed at random in batches of 10. The acetic acid solution (Sigma) is prepared at 0.6%, or 60 mg of acetic acid in 10 ml of 0.9% NaCl.
# At t=0, the mouse receives celecoxib by the oral route. At t=30 min, the mouse is administered nefopam or its liquid vehicle by the subcutaneous route. At t=60 min, the acetic acid is injected intraperitoneally (0.1 ml/10 g).
# The number of abdominal cramps is counted from 5 to 20 minutes after injection of acetic acid. Frank abdominal cramps characterized by stretching of the hindpaws and/or hollowing of the flanks with twisting are regarded as positive. • 3. Products
# Nefopam hydrochloride (Biocodex, batch 38) (called simply nefopam hereunder) is dissolved in distilled water or 0.9% NaCl. Celecoxib (Celebrex® capsules) is suspended in Tween 80 at 1%. • 4. Statistical Analysis
# The test used is an analysis of variance for 3 or more groups and a Student t-test for 2 groups. Then the treated group or groups that differ from the control group are determined. […] At least 10 mice are used for each dose, and at least 3 doses are used for determining the dose-response curve. The dose that produces 50% of antinociceptive effect (50% decrease in number of cramps) is calculated by a standard linear regression analysis of the dose-response curve.
# The interaction is evaluated by an isobolographic analysis of the co-administration of a combination of doses at fixed ratio according to Tallarida (2000) op. cit., Tallarida et al. (1989) Life Sci. 45:947-961 and Tallarida et al. (1997) Life Sci. 61:PL417-PL425. The isobologram is constructed by joining the ED50 of celecoxib with that of nefopam to obtain the line of additivity. The ED50 of the combination is determined by linear regression analysis of the dose-response curve, and it is compared by a t-test with a theoretical additive ED50 obtained using the PharmToolsPro software.
structure (smiles),measurement,setting,value
"Cc1ccc(-c2cc(C(F)(F)F)nn2-c2ccc(S(N)(=O)=O)cc2)cc1 [Celecoxib, celecoxib]",ED50,"Mus musculus, read-out: ED50 (dose producing 50% decrease in number of cramps)",40.2 ± 8.06 mg/kg
same,% variation of number of cramps,celecoxib 10 mg/kg oral,−9%
same,Number of cramps (mean ± SEM),celecoxib 10 mg/kg oral,28.2 ± 2.9
same,% variation of number of cramps,celecoxib 20 mg/kg oral,−42%
same,Number of cramps (mean ± SEM),celecoxib 20 mg/kg oral,18.1 ± 3.2
same,% variation of number of cramps,celecoxib 50 mg/kg oral,−39%
same,Number of cramps (mean ± SEM),celecoxib 50 mg/kg oral,18.9 ± 2.2
same,% variation of number of cramps,celecoxib 75 mg/kg oral,−72%
same,Number of cramps (mean ± SEM),celecoxib 75 mg/kg oral,8.6 ± 2.1
same,% variation of number of cramps,celecoxib 150 mg/kg oral,−90%
same,Number of cramps (mean ± SEM),celecoxib 150 mg/kg oral,3.2 ± 1.0
